From patent US20120295804A1, “Compositions and Methods for Diagnosis and Treatment of Breast Cancer” (University of Medicine and Dentistry of New Jersey, priority 2011, published 2012)

Tests used:
[1] = test system: Oct4^hi BCCs; assay: Carboplatin response of subcutaneous tumors from Oct4^hi BCCs; format: in vivo, nude BALB/c mice; conditions: 50 mg/kg i.p. twice at 3-day intervals, same tumor size as unsorted BCCs
Protocol: (§1) Both triple-negative MDA-MB-231 and triple-positive T47D are expected to respond to carboplatin treatment, a drug which acts through a mechanism independent of hormone receptor status. Thus, the responsiveness to carboplatin was investigated in Oct4^hi cells from both cells lines. Tumors were injected into the dorsal flanks of mice as before. When the tumors were 0.5 cm^3 the mice were injected with carboplatin intra-peritoneally (i.p.).
(§2) Serial passage of different BCC subsets was performed by injecting BCCs in dorsal flanks of mice. The cells were resuspended in PBS and then mixed with matrigel at 1:1 ratio in 0.2 mL total volume. The cells were injected at different numbers, but in a constant volume to study dose effects on the time for tumor growth. Parallel analyses were performed with unsorted BCCs. Tumors were monitored daily for 30 days and measured in two dimensions with a caliper and volume was calculated using the following: formula V=πr^2h, where r=radius and h=height. Subsequent passages occurred by sorting the same cell subset (top 5% highest GFP) and then repeating the injection as above.
(§3) Carboplatin responses to tumor growth were assessed by subcutaneous injection of 200 Oct4^hi BCCs in matrigel in the dorsal flank. For unsorted BCCs, 10^6 cells were injected. […] Tumor sizes were recorded every 2 days with a caliper, as described for serial passage.

[2] = test system: Oct4^hi MDA-MB-231; assay: Carboplatin resistance of Oct4^hi BCCs in bone marrow (femur endosteum); format: in vivo, mice; conditions: 10^3 Oct4^hi MDA-MB-231 i.v.; carboplatin 50 mg/kg i.p. at 3-day intervals; femurs examined one week after second injection
Protocol: It was then determined if Oct4^hi BCCs, at sites of distant metastasis, such as bone marrow, could resist carboplatin treatment. Bone marrow was selected for study because it is well-established that BCCs can attain dormancy in this organ, close to the endosteum (Lim, P. K. et al. 2011. Cancer Res. 71:1550-1560; Rao, G. et al. 2004. Cancer Res. 64:2874-2881). Mice were injected intravenously with 10^3 Oct4^hi MDA-MB-231. After 1 day, carboplatin was injected i.p. at 3-day intervals. One week after the second injection, femurs were decalcified, processed, and examined for GFP^+ cells. […] Similar cells were not detected in the cellular regions of the marrow, which were flushed from femurs prior to the analyses of the endosteal regions. Mice were injected intravenously with 10^3 BCCs, stably transfected with pEGFP1-Oct3/4. After 24 hours, mice were injected i.p. with carboplatin (50 mg/kg), followed by a second dose after 3 days. One week after the final injection of carboplatin, mice were euthanized, and the femurs were removed. Femurs were rinsed and the cells flushed using a 27 gauge needle attached to a syringe with PBS to remove the cells within the central region of the cavity. After this, the femurs were fixed overnight in 4% formaldehyde at 4° C. […] Slides were examined with an EVOS fl fluorescence imager.

[3] = test system: unsorted BCCs; assay: Carboplatin response of subcutaneous tumors from unsorted BCCs; format: in vivo, nude BALB/c mice; conditions: 50 mg/kg i.p. twice at 3-day intervals
Protocol: as §1, §2, §3

[4] = test system: Oct4^− BCCs; assay: Chemical induction of GFP in Oct4(−) breast cancer cells stably transfected with pEGFP1-Oct3/4; format: cell-based; conditions: 2.7 μM BIX01294, 24 h, pEGFP1-Oct3/4 stable transfectants
Text: Therefore, different BCC subsets were selected based on Oct4 expression. To do this, MDA-MB-231 and T47D were stably transfected with an Oct4 reporter vector, pEGFP1-Oct3/4 (Gerrard, L. et al. 2005. Stem Cells 23:124-133). The transfected cells were sorted into three subsets based on GFP expression levels. The top 5% of GFP expressers were designated Oct4^hi and the lowest 5%, Oct4^−. The population between the extremes were designated Oct4^med. GFP intensities were validated for correlation with Oct4 protein by intracellular flow cytometry of pEGFP1-Oct3/4 transfectants. The Oct4^− population was similar to isotype control. In contrast, the mean fluorescence intensity (MFI) of cells labeled with APC-anti-Oct4 correlated with GFP intensities.
At 40-50% confluence stably transfected BCCs were treated with G9a histone methyltransferase inhibitor, [2-(Hexahydro-4-methyl-1H-1,4-diazepin-1-yl)-6,7-dimethoxy-N-[1-(phenylmethyl)-4-piperidinyl]4-quinazolinamine] (BIX01294, Enzo Life Sciences, Farmingdale, N.Y.). BIX01294 and similar chemicals can induce Oct4 in negative cells, in reprogramming (Huangfu, D. et al. 2008. Nat. Biotech. 26:795-797; Shi, Y. et al. 2008. Cell Stem Cell 3:568-574). Cells were treated with 2.7 μM BIX01294. After 24 h, images were taken by fluorescence microscopy. Control cells were untreated or treated with vehicle (dimethyl sulphoxide, DMSO).

[5] = test system: GJIC between Oct4^hi BCCs and BM stroma; assay: GJIC in co-cultures of Oct4^hi BCCs and bone marrow stroma with or without 1-octanol; format: cell-based; conditions: 300 μM 1-octanol
Text: Connexin (Cx) expression was studied using plasma membrane extracts from unsorted, Oct4^hi, Oct4^med and Oct4^− BCCs. […] It was next determined if the higher expression of connexins in BCCs could provide the cells with an advantage to form GJIC, in co-cultures of Oct4^hi BCCs and BM stroma. […] As expected, in the presence of the GJIC inhibitor 1-octanol, the intensity of Cx43 was reduced. GJIC was studied via dye transfer between BCCs and stroma using CFDA-SE-labeled Oct4^hi BCCs, as described previously (Lim, P. K. et al. 2011. Cancer Res. 71:1550-1560). Dye transfer into stroma was blunted by 1-octanol. Finally, the total number of BCCs showing dye transfer was counted in order to quantify functional GJIC.
GJIC was assessed by CFDA-SE dye exchange from BCCs to stroma in co-cultures, as described previously (Ramkisson, S. H. et al. 2007. Cancer Res. 67:1653-1659). Briefly, BCCs and stroma were co-cultured at equal ratios in α-MEM with 10% FCS, in the presence or absence of 300 μM 1-octanol. CFDA-SE dye transfer was assessed on an EVOS fl fluorescence imager (AMG Micro, Bothell, Wash.).

[6] = test system: Oct4^hi BCCs (MDA-MB-231 and T47D); assay: Hoechst 33342 dye exclusion (side population) in the presence or absence of verapamil; format: cell-based; conditions: 400 μM verapamil, 5 μg/mL Hoechst 33342, Oct4^hi population
Protocol: FIG. 7 depicts results of experiments of dye retention in BCC subsets. Oct4^hi BCCs were labeled with Hoechst 33342 (5 μg/mL), in the presence or absence of 400 μM verapamil. Propidium iodide-negative cells were gated based on GFP intensity. The cells were analyzed on Hoechst Blue and Hoechst Red filters. Side population cells that were Hoechst negative (circled) were compared in the two experimental conditions. The figure represents five different experiments, with MDA-MB-231 and T47D.
Experiments were then performed to determine if drug resistance genes played any role in the differentiation of BCC subsets. […] Oct4^hi cells were incubated in the presence or absence of verapamil, which inhibits multi-drug resistance transporters, and then dye exclusion was tested in four different experiments. Oct4^hi, Oct4^med and Oct4^− cells were tested. […] Only few Oct4^med (FIG. 8) and Oct4^− cells (FIG. 9) excluded the dye.
Side population analysis of the pEGFP1-Oct4 stable transfectants was performed using the LSR II (BD Biosciences). […] Optimal titrations and conditions were determined to be 5 μg/ml Hoechst 33342 (90 min incubation at 37° C.) and 400 μM verapamil (10 min pre-incubation). […] The cells between the two extremes were also analyzed (Oct4^med).

## N.N.O=C([O-])C1(C(=O)[O-])CCC1.[Pt+2] [carboplatin]
[1]
  tumors after carboplatin treatment: retained palpable tumors
[2]
  GFP^+ BCCs in femur after carboplatin: drug resistance in GFP^+ BCCs close to the endosteum of bone marrow
[3]; mice injected with unsorted BCCs
  tumors eight days after treatment with carboplatin: tumors were undetectable
[3]; tumors 0.5 cm^3 at start, vs Oct4^hi and untreated unsorted BCC
  tumor change after the second injection of carboplatin: significant (p<0.05) reduction

## COc1cc2nc(N3CCCN(C)CC3)nc(NC3CCN(Cc4ccccc4)CC3)c2cc1OC [BIX01294, 2-(Hexahydro-4-methyl-1H-1,4-diazepin-1-yl)-6,7-dimethoxy-N-[1-(phenylmethyl)-4-piperidinyl]4-quinazolinamine]
[4]
  Oct4^− BCCs reverted to high GFP expression: 92.5%±4.4%

## CCCCCCCCO [1-octanol]
[5]; CFDA-SE-labeled Oct4^hi BCCs
  CFDA-SE dye transfer into stroma: blunted
[5]; co-cultures of Oct4^hi BCCs and BM stroma
  intensity of Cx43 immunofluorescence: reduced

## COc1ccc(CCN(C)CCCC(C#N)(c2ccc(OC)c(OC)c2)C(C)C)cc1OC (centres unmarked) [verapamil]
[6]
  difference in Hoechst dye retention with verapamil: 3 fold
